Data: BigSolDB 2.1

SMILES: O=c1[nH]cc(F)c(=O)[nH]1
- solubility (mole fraction) (in 1,4-dioxane, 290.2 K): 0.00112
- solubility (mole fraction) (in 1,4-dioxane, 291.3 K): 0.00123
- solubility (mole fraction) (in 1,4-dioxane, 300.9 K): 0.00158
- solubility (mole fraction) (in 1,4-dioxane, 305.2 K): 0.00176
- solubility (mole fraction) (in 1,4-dioxane, 306.4 K): 0.00187
- solubility (mole fraction) (in 1,4-dioxane, 310.4 K): 0.00205
- solubility (mole fraction) (in 1,4-dioxane, 313.3 K): 0.00218
- solubility (mole fraction) (in 1,4-dioxane, 313.9 K): 0.00225
- solubility (mole fraction) (in 1,4-dioxane, 318 K): 0.00247
- solubility (mole fraction) (in 1,4-dioxane, 319.5 K): 0.00258
- solubility (mole fraction) (in 1,4-dioxane, 322.8 K): 0.00284
- solubility (mole fraction) (in 1,4-dioxane, 329.8 K): 0.00332
- solubility (mole fraction) (in THF, 279.6 K): 0.00246
- solubility (mole fraction) (in THF, 287 K): 0.00273
- solubility (mole fraction) (in THF, 293.2 K): 0.00289
- solubility (mole fraction) (in THF, 303.8 K): 0.00328
- solubility (mole fraction) (in THF, 308.7 K): 0.00349
- solubility (mole fraction) (in THF, 314.6 K): 0.00367
- solubility (mole fraction) (in THF, 325.2 K): 0.00418
- solubility (mole fraction) (in THF, 328.6 K): 0.00454
- solubility (mole fraction) (in acetone, 282.9 K): 0.00152
- solubility (mole fraction) (in acetone, 290.2 K): 0.00175
- solubility (mole fraction) (in acetone, 298.4 K): 0.00199
- solubility (mole fraction) (in acetone, 302.5 K): 0.00219
- solubility (mole fraction) (in acetone, 305.1 K): 0.00229
- solubility (mole fraction) (in acetone, 307.4 K): 0.00244
- solubility (mole fraction) (in acetone, 315.2 K): 0.0028
- solubility (mole fraction) (in acetone, 316.9 K): 0.00299
- solubility (mole fraction) (in acetone, 322.4 K): 0.00304
- solubility (mole fraction) (in acetonitrile, 290.3 K): 0.00046
- solubility (mole fraction) (in acetonitrile, 294.6 K): 0.00053
- solubility (mole fraction) (in acetonitrile, 299.1 K): 0.00062
- solubility (mole fraction) (in acetonitrile, 300.3 K): 0.00066
- solubility (mole fraction) (in acetonitrile, 306.6 K): 0.00081
- solubility (mole fraction) (in acetonitrile, 307.6 K): 0.00083
- solubility (mole fraction) (in acetonitrile, 316 K): 0.00102
- solubility (mole fraction) (in acetonitrile, 320.2 K): 0.00121
- solubility (mole fraction) (in acetonitrile, 329 K): 0.00143
- solubility (mole fraction) (in acetonitrile, 332.3 K): 0.00162
- solubility (mole fraction) (in ethanol, 281.1 K): 0.00099
- solubility (mole fraction) (in ethanol, 286.9 K): 0.00124
- solubility (mole fraction) (in ethanol, 291.2 K): 0.00137
- solubility (mole fraction) (in ethanol, 297.7 K): 0.00167
- solubility (mole fraction) (in ethanol, 306.2 K): 0.00206
- solubility (mole fraction) (in ethanol, 309.1 K): 0.00216
- solubility (mole fraction) (in ethanol, 314.8 K): 0.0026
- solubility (mole fraction) (in ethanol, 315.1 K): 0.00267
- solubility (mole fraction) (in ethanol, 322.8 K): 0.0032
- solubility (mole fraction) (in ethanol, 323.7 K): 0.00329
- solubility (mole fraction) (in ethanol, 325.6 K): 0.00366
- solubility (mole fraction) (in ethanol, 329.9 K): 0.00399
- solubility (mole fraction) (in ethyl acetate, 291.1 K): 0.00041
- solubility (mole fraction) (in ethyl acetate, 297 K): 0.00048
- solubility (mole fraction) (in ethyl acetate, 300.6 K): 0.00054
- solubility (mole fraction) (in ethyl acetate, 310.8 K): 0.00063
- solubility (mole fraction) (in ethyl acetate, 320.3 K): 0.00077
- solubility (mole fraction) (in ethyl acetate, 330.6 K): 0.00099
- solubility (mole fraction) (in isopropanol, 282.1 K): 0.00085
- solubility (mole fraction) (in isopropanol, 284.6 K): 0.00089
- solubility (mole fraction) (in isopropanol, 286.8 K): 0.00102
- solubility (mole fraction) (in isopropanol, 294.9 K): 0.00119
- solubility (mole fraction) (in isopropanol, 301.3 K): 0.00147
- solubility (mole fraction) (in isopropanol, 302.4 K): 0.00163
- solubility (mole fraction) (in isopropanol, 308 K): 0.00188
- solubility (mole fraction) (in isopropanol, 311.6 K): 0.00217
- solubility (mole fraction) (in isopropanol, 316.2 K): 0.00237
- solubility (mole fraction) (in isopropanol, 318 K): 0.00258
- solubility (mole fraction) (in isopropanol, 323 K): 0.00301
- solubility (mole fraction) (in isopropanol, 327.5 K): 0.00346
- solubility (mole fraction) (in isopropanol, 330 K): 0.00381
- solubility (mole fraction) (in methanol, 280 K): 0.00165
- solubility (mole fraction) (in methanol, 287.7 K): 0.00216
- solubility (mole fraction) (in methanol, 295.8 K): 0.00289
- solubility (mole fraction) (in methanol, 306.8 K): 0.00379
- solubility (mole fraction) (in methanol, 318.4 K): 0.00502
- solubility (mole fraction) (in methanol, 326 K): 0.00581
- solubility (mole fraction) (in methanol, 328.8 K): 0.00661
- solubility (mole fraction) (in n-butanol, 280.1 K): 0.00058
- solubility (mole fraction) (in n-butanol, 283 K): 0.00059
- solubility (mole fraction) (in n-butanol, 287.8 K): 0.00086
- solubility (mole fraction) (in n-butanol, 299.5 K): 0.00103
- solubility (mole fraction) (in n-butanol, 303.4 K): 0.00121
- solubility (mole fraction) (in n-butanol, 306.3 K): 0.00141
- solubility (mole fraction) (in n-butanol, 314.8 K): 0.00182
- solubility (mole fraction) (in n-butanol, 325.8 K): 0.0026
- solubility (mole fraction) (in n-butanol, 327 K): 0.00267
- solubility (mole fraction) (in n-butanol, 331.5 K): 0.00313
- solubility (mole fraction) (in n-propanol, 280.8 K): 0.00082
- solubility (mole fraction) (in n-propanol, 282.4 K): 0.00089
- solubility (mole fraction) (in n-propanol, 291.2 K): 0.00098
- solubility (mole fraction) (in n-propanol, 294.5 K): 0.00108
- solubility (mole fraction) (in n-propanol, 298.4 K): 0.00121
- solubility (mole fraction) (in n-propanol, 302.2 K): 0.00123
- solubility (mole fraction) (in n-propanol, 308.6 K): 0.00149
- solubility (mole fraction) (in n-propanol, 313 K): 0.00172
- solubility (mole fraction) (in n-propanol, 315.1 K): 0.00179
- solubility (mole fraction) (in n-propanol, 318.3 K): 0.00208
- solubility (mole fraction) (in n-propanol, 322.3 K): 0.00224
- solubility (mole fraction) (in n-propanol, 324.3 K): 0.00245
- solubility (mole fraction) (in n-propanol, 326.2 K): 0.00263
- solubility (mole fraction) (in water, 280.1 K): 0.00091
- solubility (mole fraction) (in water, 282.5 K): 0.00093
- solubility (mole fraction) (in water, 290.8 K): 0.00124
- solubility (mole fraction) (in water, 294.5 K): 0.00147
- solubility (mole fraction) (in water, 304.4 K): 0.0021
- solubility (mole fraction) (in water, 312.1 K): 0.00288
- solubility (mole fraction) (in water, 317.5 K): 0.00337
- solubility (mole fraction) (in water, 323 K): 0.00402
